The values that follow come from US20220323445A1, “REDUCING IMMUNOGENICITY TO PEGLOTICASE” (Horizon Therapeutics Ireland DAC, priority 2020, published 2022).

The experiment concerns serum uric acid (sUA). The experiment can be described thus: Serum uric acid (sUA) levels and sUA responders, open-label study of pegloticase with MTX (NCT03635957). It counts as in vivo, human. Conditions: mITT. The method, then: The primary objective is to estimate the response rate during Month 6 (Weeks 20, 22, and 24), as measured by the sustained normalization of serum uric acid (SUA) to <6 mg/dL for at least 80% of the time during Month 6 in subjects receiving KXX with MTX.
The primary efficacy outcome endpoint is the sustained normalization of SUA to <6 mg/dL for at least 80% of the time during month 6 (weeks 20, 22, and 24) in subjects receiving KXX with MTX. This is slightly below the urate solubility threshold and this threshold has been the accepted standard for nearly all modern gout trials. Participants who achieve this endpoint were classified as “responders.” Serum uric acid (SUA) responders may also be defined as participants achieving and maintaining SUA <6 mg/dL for at least 80% of the time during Month 6 (Weeks 20, 22, and 24).
Blood samples may be collected prior to each pegloticase infusion for measurement of SUA levels using the Beckman Coulter AU System Uric Acid procedure. Participants were declared “non-responders” if there were SUA measures >6 mg/dL at 2 consecutive study visits beginning with the week 2 visit. […] If the SUA goal is not maintained before or at the 12-week mark, it was assumed that the participant had developed clinically relevant anti-pegloticase antibody and they received no further infusions. This assumption and subsequent discontinuation of pegloticase was consistent with the protocol of large phase III randomized controlled trials and the product label. A formal stopping rule was 2 occasions of SUA levels of greater than 6 mg/dL.
Clinical Chemistry—Blood samples were collected prior to each pegloticase infusion for measurement of SUA levels (primary efficacy parameter) using the Beckman Coulter AU System Uric Acid procedure. In this procedure uric acid is converted to hydrogen peroxide. Hydrogen peroxide reacts with reagent to produce a chromophore which is read bichromatically at 660/800 nm. The amount of dye formed is proportional to the uric acid concentration in the sample.
Serum samples for measurement of SUA levels were collected at the Screening Visit, the Week −4 Visit (prior to the first dose of MTX), and the Week −2 Visit during the MTX Run-in Period; within 48 hours prior to each pegloticase infusion and after the end of each pegloticase infusion prior to discharge from the site during the Pegloticase+IMM Period; at the non-infusion Week 52/End of Study/Early Termination Visits and at the Post Treatment 3 and 6 Month Follow-up Visits. Additional serum samples for SUA levels were collected at optional non-infusion (Frequent Sampling) Visits at Weeks 1 and 7. […] Subjects with SUA level >6 mg/dL at 2 consecutive visits beginning at Week 2 visit discontinued treatment, completed the End of Pegloticase Infusion Visit procedures within 2 weeks and continued the subject visits according to the protocol (without treatment).
Efficacy analyses were performed using the modified intention-to-treat (mITT) population, defined as all enrolled subjects who received ≥1 dose of pegloticase. The proportion of Month 6 responders was summarized, along with a 95% confidence interval for the proportion. The proportion of Month 3 and overall (Months 3 and 6 combined) responders was analyzed similarly.
A subject was declared a non-responder if the subject had SUA level >6 mg/dL at 2 consecutive study visits beginning with the Week 2 Visit. In addition, a subject who withdraws from study treatment for any reason after the first dose of pegloticase in the KXX+MTX Period and prior to Month 6 (for the primary endpoint) or Month 3 (for the secondary endpoint) was considered a non-responder if SUA values were not collected at the planned time points.
Patients were administered oral MTX (15 mg/week) and folate (1 mg/day) 4 weeks prior to the first pegloticase infusion (Day 1) and throughout the pegloticase treatment period. […]

[1] abbreviates: Day 1 - Pre-Infusion (after MTX Run-in).

Take `CN(Cc1cnc2nc(N)nc(N)c2n1)c1ccc(C(=O)N[C@@H](CCC(=O)O)C(=O)O)cc1` [MTX, methotrexate]: under setting [1], the “sUA Change from Methotrexate Baseline, Mean (SD)” value is recorded as 0.25 (1.283) mg/dL; the “sUA Change from Methotrexate Baseline, Median” value was -0.25 mg/dL; the “sUA Observed, Median” value came out at 9.00 mg/dL; the “sUA ≤ 6 mg/dL, n (%)” value is reported as 1 (7.1%) n (%). Besides, where the note is “Week -2 (MTX Run-in Period)”, the “sUA Change from Methotrexate Baseline, Mean (SD)” value is given as 0.54 (0.839) mg/dL; the “sUA Change from Methotrexate Baseline, Median” value turned out to be 0.50 mg/dL; the “sUA Observed, Median” value is listed as 9.30 mg/dL; the “sUA ≤ 6 mg/dL, n (%)” value was 1 (7.1%) n (%).
